This passage reports T/C results from PubChem BioAssay AID192 (DTP/NCI, 2004).

Values joined by “and” are separate entries in the source; they are usually repeats but may differ in a detail not shown here. Identical values can stand only once. Toxic doses and inconclusive results are not listed.

This experiment deals with BDF1 mice, B16 melanoma ip, median survival T/C. Nature of the experiment: NCI In Vivo Anticancer Drug Screen. Data for tumor model B16 Melanoma (intraperitoneal) in B6D2F1 (BDF1) mice. To be noted: endpoint: median survival time, higher = longer survival. The essentials: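 In this screen, activity was judged from survival or tumor size in treated versus vehicle-treated tumor-bearing mice, reported as T/C.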

Where [1] appears, read: dose: 25.0 mg/kg/injection, schedule: Q01DX009 (ip), vehicle: saline with Tween-80.
Where [2] appears, read: dose: 50.0 mg/kg/injection, schedule: Q01DX009 (ip), vehicle: saline with Tween-80.
Where [3] appears, read: dose: 100.0 mg/kg/injection, schedule: Q01DX009 (ip), vehicle: Klucel (hydroxypropylcellulose) (HPC).
Where [4] appears, read: dose: 100.0 mg/kg/injection, schedule: Q01DX009 (ip), vehicle: saline with Tween-80.

As to `COC1C(O)C(C)OC(OC2C(Oc3cccc4c(O)c5c(=O)oc6ccc(C)c7c(=O)oc(c34)c5c67)OC(C)C(O)C2O)C1O` (configuration not stated), the T/C runs as follows: (dose: 16.0 mg/kg/injection, schedule: Q04DX003 (ip), vehicle: saline with Tween-80) 107 % of control; under setting [1], 183 % of control; (dose: 32.0 mg/kg/injection, schedule: Q04DX003 (ip), vehicle: saline with Tween-80) 101 % of control; (dose: 50.0 mg/kg/injection, schedule: Q01DX009 (ip), vehicle: carboxymethylcellulose (CMC)) 179 % of control; under setting [2], 199 % of control; (dose: 64.0 mg/kg/injection, schedule: Q04DX003 (ip), vehicle: saline with Tween-80) 122 % of control. The T/C was 119 % of control under setting [3]; 206 % of control (dose: 100.0 mg/kg/injection, schedule: Q01DX009 (ip), vehicle: carboxymethylcellulose (CMC)); 185 % of control under setting [4]; 119 % of control (dose: 128.0 mg/kg/injection, schedule: Q04DX003 (ip), vehicle: saline with Tween-80).

For the compound `COc1ccc2c(c1)C13CCCCC1C(C2)N(CC1(c2ccccc2)CC1)CC3` (configuration not stated), the T/C by setting is: (dose: 4.1 mg/kg/injection, schedule: Q01DX009 (ip), vehicle: Klucel (hydroxypropylcellulose) (HPC)) 93 % of control; (dose: 6.25 mg/kg/injection, schedule: Q01DX009 (ip), vehicle: Klucel (hydroxypropylcellulose) (HPC)) 93 % of control; (dose: 9.3 mg/kg/injection, schedule: Q01DX009 (ip), vehicle: Klucel (hydroxypropylcellulose) (HPC)) 93 % of control and 109 % of control; (dose: 12.5 mg/kg/injection, schedule: Q01DX009 (ip), vehicle: Klucel (hydroxypropylcellulose) (HPC)) 119 % of control; (dose: 25.0 mg/kg/injection, schedule: Q01DX009 (ip), vehicle: Klucel (hydroxypropylcellulose) (HPC)) 121 % of control; (dose: 50.0 mg/kg/injection, schedule: Q01DX009 (ip), vehicle: Klucel (hydroxypropylcellulose) (HPC)) 97 % of control.

`CCCCC(CC)C(O)C(C)C(C)O` (configuration not stated): the T/C runs as follows: under setting [3], 97 % of control; (dose: 200.0 mg/kg/injection, schedule: Q01DX009 (ip), vehicle: Klucel (hydroxypropylcellulose) (HPC)) 87 % of control.

As to `CCSc1ccc2c(cc1=O)[C@@H](NC1OC(CO)C(O)C(O)C1O)CCc1cc(OC)c(OC)c(OC)c1-2` (some centres not stated), the T/C runs as follows: (dose: 50.0 mg/kg/injection, schedule: Q01DX009 (ip), vehicle: other) 101 % of control; (dose: 100.0 mg/kg/injection, schedule: Q01DX009 (ip), vehicle: other) 109 % of control.

Take `CCCC(NC(=O)C(C)Br)C(=O)O` (configuration not stated): the T/C under setting [2] was 101 % of control and the T/C under setting [4] is 87 % of control.

Take `NOCc1cccc(CON)c1`: the T/C (dose: 12.5 mg/kg/injection, schedule: Q04DX003 (ip), vehicle: saline) was 123 % of control; the T/C (dose: 25.0 mg/kg/injection, schedule: Q04DX003 (ip), vehicle: saline) is 118 % of control; the T/C (dose: 50.0 mg/kg/injection, schedule: Q04DX003 (ip), vehicle: saline) was 115 % of control.

For the compound `CC(C)(c1ccccc1)c1ccc(O)cc1`, the T/C (dose: 37.5 mg/kg/injection, schedule: Q01DX009 (ip), vehicle: other) was 97 % of control; the T/C (dose: 75.0 mg/kg/injection, schedule: Q01DX009 (ip), vehicle: other) is 100 % of control; the T/C (dose: 150.0 mg/kg/injection, schedule: Q01DX009 (ip), vehicle: other) was 94 % of control; the T/C (dose: 150.0 mg/kg/injection, schedule: Q04DX003 (ip), vehicle: saline + alcohol) is 90 % of control; the T/C (dose: 300.0 mg/kg/injection, schedule: Q01DX009 (ip), vehicle: other) is 94 % of control; the T/C (dose: 300.0 mg/kg/injection, schedule: Q04DX003 (ip), vehicle: saline + alcohol) is 104 % of control. Where the note is “dose: 600.0 mg/kg/injection, schedule: Q04DX003 (ip), vehicle: saline + alcohol”, the T/C was 95 % of control.

For the compound `COc1cccc2c1C(=O)c1c(O)c3c(c(O)c1C2=O)CC(O)(C(=O)CO)CC3OC1CC(N)C(O)C(C)O1` (configuration not stated), the T/C runs as follows: (dose: 1.12 mg/kg/injection, schedule: Q01DX001 (ip), vehicle: water) 178 % of control; (dose: 2.25 mg/kg/injection, schedule: Q01DX001 (ip), vehicle: water) 156 % of control and 212 % of control and 228 % of control; (dose: 2.9 mg/kg/injection, schedule: Q01DX009 (ip), vehicle: saline) 195 % of control; (dose: 4.2 mg/kg/injection, schedule: Q01DX001 (ip), vehicle: water) 178 % of control; (dose: 4.32 mg/kg/injection, schedule: Q01DX004 (ip), vehicle: other) 152 % of control; (dose: 4.5 mg/kg/injection, schedule: Q01DX001 (ip), vehicle: water) 161 % of control and 194 % of control and 273 % of control. The T/C was 183 % of control (dose: 6.9 mg/kg/injection, schedule: Q01DX001 (ip), vehicle: water); 152 % of control (dose: 7.2 mg/kg/injection, schedule: Q01DX004 (ip), vehicle: other); 203 % of control and 273 % of control and 277 % of control (dose: 9.0 mg/kg/injection, schedule: Q01DX001 (ip), vehicle: water); 189 % of control (dose: 9.4 mg/kg/injection, schedule: Q01DX001 (ip), vehicle: water); 222 % of control and 298 % of control (dose: 10.0 mg/kg/injection, schedule: Q01DX009 (ip), vehicle: saline); 182 % of control (dose: 11.4 mg/kg/injection, schedule: Q04DX003 (ip), vehicle: saline). Also, the T/C is 267 % of control (dose: 11.7 mg/kg/injection, schedule: Q01DX009 (ip), vehicle: saline); 159 % of control (dose: 12.0 mg/kg/injection, schedule: Q01DX004 (ip), vehicle: other); 108 % of control (dose: 15.0 mg/kg/injection, schedule: Q01DX001 (ip), vehicle: water); 203 % of control and 250 % of control and 273 % of control (dose: 18.0 mg/kg/injection, schedule: Q01DX001 (ip), vehicle: water); 235 % of control (dose: 18.75 mg/kg/injection, schedule: Q01DX001 (ip), vehicle: water); 200 % of control (dose: 18.8 mg/kg/injection, schedule: Q01DX001 (ip), vehicle: water). Moreover, the T/C is, setting by setting: (dose: 19.2 mg/kg/injection, schedule: Q01DX001 (ip), vehicle: water) 209 % of control; (dose: 20.0 mg/kg/injection, schedule: Q01DX009 (ip), vehicle: saline) 289 % of control and 314 % of control; (dose: 22.8 mg/kg/injection, schedule: Q04DX003 (ip), vehicle: saline) 236 % of control; (dose: 23.4 mg/kg/injection, schedule: Q01DX009 (ip), vehicle: saline) 165 % of control and 200 % of control; (dose: 30.0 mg/kg/injection, schedule: Q01DX001 (ip), vehicle: water) 116 % of control; (dose: 32.0 mg/kg/injection, schedule: Q01DX001 (ip), vehicle: other) 164 % of control. The T/C was 203 % of control (dose: 36.0 mg/kg/injection, schedule: Q01DX001 (ip), vehicle: water); 226 % of control and 280 % of control (dose: 37.5 mg/kg/injection, schedule: Q01DX001 (ip), vehicle: water); 287 % of control (dose: 40.0 mg/kg/injection, schedule: Q01DX009 (ip), vehicle: saline); 150 % of control and 276 % of control (dose: 45.6 mg/kg/injection, schedule: Q04DX003 (ip), vehicle: saline); 172 % of control (dose: 46.8 mg/kg/injection, schedule: Q01DX009 (ip), vehicle: saline); 114 % of control (dose: 60.0 mg/kg/injection, schedule: Q01DX001 (ip), vehicle: water). In addition, the T/C (dose: 72.0 mg/kg/injection, schedule: Q01DX001 (ip), vehicle: water) was 277 % of control; the T/C (dose: 75.0 mg/kg/injection, schedule: Q01DX001 (ip), vehicle: water) was 314 % of control and 334 % of control; the T/C (dose: 91.2 mg/kg/injection, schedule: Q04DX003 (ip), vehicle: saline) was 157 % of control and 276 % of control; the T/C (dose: 150.0 mg/kg/injection, schedule: Q01DX001 (ip), vehicle: water) is 185 % of control and 315 % of control.

`CCC(=O)/C=C/C1=C(C)CCCC1(C)C`: the T/C reads like this: under setting [2], 104 % of control; under setting [4], 103 % of control; (dose: 200.0 mg/kg/injection, schedule: Q01DX009 (ip), vehicle: saline with Tween-80) 92 % of control.

As for `CC1(C)N=C(N)N=C(N)N1c1cccc(CCCCc2cccc(S(=O)(=O)F)c2)c1`, the T/C runs as follows: (dose: 6.25 mg/kg/injection, schedule: Q01DX009 (ip), vehicle: saline with Tween-80) 115 % of control; (dose: 12.5 mg/kg/injection, schedule: Q01DX009 (ip), vehicle: saline with Tween-80) 96 % of control; under setting [1], 87 % of control.
